# In US20140128385A1 (NOVARTIS AG, priority 2011, published 2014):
# Counter-ions that a name gives are not always drawn.
# Molecular target: T1, BACE-2 (Homo sapiens, UniProt Q9Y5Z0)
# T1 construct: Recombinant BACE-2 (extracellular domain, expressed in baculovirus and purified using standard methods); made in house
# T1 sequence (Q9Y5Z0 63-473 limits assumed): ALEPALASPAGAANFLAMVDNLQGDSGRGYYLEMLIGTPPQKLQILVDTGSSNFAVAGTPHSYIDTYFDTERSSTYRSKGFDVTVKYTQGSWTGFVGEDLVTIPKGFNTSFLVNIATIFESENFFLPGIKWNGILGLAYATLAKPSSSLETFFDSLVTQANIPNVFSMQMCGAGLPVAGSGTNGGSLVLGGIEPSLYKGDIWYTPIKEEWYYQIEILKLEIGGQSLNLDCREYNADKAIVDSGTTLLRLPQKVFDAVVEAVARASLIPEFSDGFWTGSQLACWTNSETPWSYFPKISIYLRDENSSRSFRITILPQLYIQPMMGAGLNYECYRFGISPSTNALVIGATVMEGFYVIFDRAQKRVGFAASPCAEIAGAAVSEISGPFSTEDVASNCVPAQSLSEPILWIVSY
# Assay: assay for inhibition of BACE-2
# Type: biochemical
row,SMILES,IC50 [nM]
1,"CC1(c2cccc(NC(=O)c3coc(C(F)(F)F)c3)c2)COCC(N)=N1 (centres unmarked) [Example 23, 5-Trifluoromethyl-furan-3-carboxylic acid [3-(5-amino-3-methyl-3,6-dihydro-2H-[1,4]oxazin-3-yl)-phenyl]-amide hydrochloride]",> 10000
2,"CC1(c2cccc(NC(=O)c3ccc(Br)cc3)c2)COCC(N)=N1 (centres unmarked) [Example 24, N-[3-(5-Amino-3-methyl-3,6-dihydro-2H-[1,4]oxazin-3-yl)-phenyl]-4-bromo-benzamide hydrochloride]",1070
3,"CC1(c2cccc(NC(=O)C3CCCCC3)c2)COCC(N)=N1 (centres unmarked) [Example 25, Cyclohexanecarboxylic acid [3-(5-amino-3-methyl-3,6-dihydro-2H-[1,4]oxazin-3-yl)-phenyl]-amide hydrochloride]",> 10000
4,"CC1(c2cccc(NC(=O)C3CCC(F)(F)CC3)c2)COCC(N)=N1 (centres unmarked) [Example 26, 4,4-Difluoro-cyclohexanecarboxylic acid [3-(5-amino-3-methyl-3,6-dihydro-2H-[1,4]oxazin-3-yl)-phenyl]-amide hydrochloride]",> 10000
5,"Cc1ccc(C(=O)Nc2cccc(C3(C)COCC(N)=N3)c2)nc1 (centres unmarked) [Example 27, 5-Methyl-pyridine-2-carboxylic acid [3-(5-amino-3-methyl-3,6-dihydro-2H-[1,4]oxazin-3-yl)-phenyl]-amide hydrochloride]",374
6,"CC1(c2cccc(NC(=O)c3cccnc3)c2)COCC(N)=N1 (centres unmarked) [Example 28, N-[3-(5-Amino-3-methyl-3,6-dihydro-2H-[1,4]oxazin-3-yl)-phenyl]-nicotinamide hydrochloride]",> 10000
7,"Cc1cc(Br)cnc1C(=O)Nc1cccc([C@]2(C)COCC(=N)N2)c1 [Example 29, 5-Bromo-3-methyl-pyridine-2-carboxylic acid [3-((R)-5-amino-3-methyl-3,6-dihydro-2H-[1,4]oxazin-3-yl)-phenyl]-amide hydrochloride]",21
8,"COc1ccc(C(=O)Nc2cccc([C@]3(C)COCC(N)=N3)c2)nc1 [Example 30, 5-Methoxy-pyridine-2-carboxylic acid [3-((R)-5-amino-3-methyl-3,6-dihydro-2H-[1,4]oxazin-3-yl)-phenyl]-amide hydrochloride]",367
9,"NC1=NC(CF)(c2cccc(NC(=O)c3ccc(Br)cn3)c2)COC1 (centres unmarked) [Example 31, 5-Bromo-pyridine-2-carboxylic acid [3-(5-amino-3-fluoromethyl-3,6-dihydro-2H-[1,4]oxazin-3-yl)-phenyl]-amide]",130
10,NC1=NC(CF)(c2cc(Cl)cc(NC(=O)c3ccc(Br)cn3)c2)COC1 (centres unmarked) [Example 32],1020
11,"NC1=N[C@](CF)(c2cccc(NC(=O)c3ccc(Br)cn3)c2)COC1 [Example 33, 5-Bromo-pyridine-2-carboxylic acid [3-((R)-5-amino-3-fluoromethyl-3,6-dihydro-2H-[1,4]oxazin-3-yl)-phenyl]-amide]",90
12,"NC1=NC(c2cccc(NC(=O)c3ccc(Br)cn3)c2)(C(F)F)COC1 (centres unmarked) [Example 34, 5-Bromo-pyridine-2-carboxylic acid [3-(5-amino-3-difluoromethyl-3,6-dihydro-2H-[1,4]oxazin-3-yl)-phenyl]-amide hydrochloride]",345
13,NC1=NC(c2cccc(NC(=O)c3ccc(Cl)cn3)c2)(C(F)F)COC1 (centres unmarked) [Example 35],139
14,N#Cc1ccc(C(=O)Nc2cccc(C3(C(F)F)COCC(N)=N3)c2)nc1 (centres unmarked) [Example 36],910
15,Cc1cc(Br)cnc1C(=O)Nc1cccc(C2(C(F)F)COCC(N)=N2)c1 (centres unmarked) [Example 37],58
16,Cc1cnc(C(=O)Nc2cccc(C3(C(F)F)COCC(N)=N3)c2)cn1 (centres unmarked) [Example 38],9010

row,SMILES,IC50 [nM]
1,NC1=NC(c2cccc(NC(=O)c3ccc(C(F)(F)F)cn3)c2)(C(F)F)COC1 (centres unmarked) [Example 39],2970
2,NC1=NC(c2cccc(NC(=O)c3ncc(C(F)(F)F)cc3Cl)c2)(C(F)F)COC1 (centres unmarked) [Example 40],2450
3,Cc1cc(Cl)cnc1C(=O)Nc1cccc(C2(C(F)F)COCC(N)=N2)c1 (centres unmarked) [Example 41],28
4,"NC1=NC(c2cc(NC(=O)c3ccc(Br)cn3)ccc2F)(C(F)F)COC1 (centres unmarked) [Example 42, 5-Bromo-pyridine-2-carboxylic acid [3-(5-amino-3-difluoromethyl-3,6-dihydro-2H-[1,4]oxazin-3-yl)-4-fluoro-phenyl]-amide hydrochloride]",53
5,NC1=NC(c2cc(NC(=O)c3ccc(Cl)cn3)ccc2F)(C(F)F)COC1 (centres unmarked) [Example 43],28
6,Cc1cc(Cl)cnc1C(=O)Nc1ccc(F)c([C@]2(C(F)F)COCC(N)=N2)c1 [Example 44],5
7,Cc1cc(Br)cnc1C(=O)Nc1ccc(F)c([C@]2(C(F)F)COCC(N)=N2)c1 [Example 45],10
8,NC1=N[C@@](c2cc(NC(=O)c3ncc(C(F)(F)F)cc3Cl)ccc2F)(C(F)F)COC1 [Example 46],130
9,NC1=N[C@@](c2cc(NC(=O)c3ccc(C(F)(F)F)cn3)ccc2F)(C(F)F)COC1 [Example 47],251
10,Cc1cnc(C(=O)Nc2ccc(F)c([C@]3(C(F)F)COCC(N)=N3)c2)cn1 [Example 48],511
11,COc1ccc(C(=O)Nc2cccc([C@]3(C)CO[C@@](C)(C(F)(F)F)C(N)=N3)c2)nc1 [Example 67],27
12,C[C@@]1(c2cc(NC(=O)c3ccc(Br)cn3)ccc2F)CO[C@@](C)(C(F)(F)F)C(N)=N1 [Example 68],3
13,COc1ccc(C(=O)Nc2ccc(F)c([C@]3(C)CO[C@@](C)(C(F)(F)F)C(N)=N3)c2)nc1 [Example 69],1
14,C[C@@]1(c2cc(NC(=O)c3ncc(C#N)cn3)ccc2F)CO[C@@](C)(C(F)(F)F)C(N)=N1 [Example 70],4
15,"C[C@@]1(c2cc(NC(=O)c3ncc(Br)cn3)ccc2F)CO[C@@](C)(C(F)(F)F)C(N)=N1 [Example 71, 5-Bromo-pyrimidine-2-carboxylic acid [3-((3R,6R)-5-amino-3,6-dimethyl-6-trifluoromethyl-3,6-dihydro-2H-[1,4]oxazin-3-yl)-4-fluoro-phenyl]-amide hydrochloride]",3
16,C[C@@]1(c2cc(NC(=O)c3ccc(C#N)cn3)ccc2F)CO[C@@](C)(C(F)(F)F)C(N)=N1 [Example 73],27

# Second part, the compound after the results:
row,IC50 [nM],SMILES
1,514,COCCOc1cnc(C(=O)Nc2ccc(F)c([C@]3(C)CO[C@@](C)(C(F)(F)F)C(N)=N3)c2)cn1 [Example 74]
2,316,"CC1(C)OCC(c2cc(NC(=O)c3ccc(C#N)cn3)ccc2F)(C(F)F)N=C1N (centres unmarked) [Example 79, 5-Cyano-pyridine-2-carboxylic acid[3-(5-amino-3-difluoromethyl-6,6-dimethyl-3,6-dihydro-2H-[1,4]oxazin-3-yl)-4-fluoro-phenyl]-amide]"
3,64,CC1(C)OCC(c2cc(NC(=O)c3ccc(Br)cn3)ccc2F)(C(F)F)N=C1N (centres unmarked) [Example 80]
4,4290,NC1=NC(c2cc(NC(=O)c3ccc(Br)cn3)c(F)cc2F)(C(F)F)COC1 (centres unmarked) [Example 81]
5,1230,N#Cc1ccc(C(=O)Nc2cc(C3(C(F)F)COCC(N)=N3)c(F)cc2F)nc1 (centres unmarked) [Example 82]
6,5880,COc1cc(Br)cnc1C(=O)Nc1cc(C2(C(F)F)COCC(N)=N2)c(F)cc1F (centres unmarked) [Example 83]
7,3440,NC1=NC(c2cc(NC(=O)c3ncc(Br)cc3O)c(F)cc2F)(C(F)F)COC1 (centres unmarked) [Example 84]
8,8,"NC1=N[C@](CF)(c2cc(NC(=O)c3ccc(Cl)cn3)ccc2F)COC1 [Example 85, 5-Chloro-pyridine-2-carboxylic acid [3-((R)-5-amino-3-fluoromethyl-3,6-dihydro-2H-[1,4]oxazin-3-yl)-4-fluoro-phenyl]-amide hydrochloride]"
9,32,NC1=NC(CF)(c2cc(NC(=O)c3ccc(Br)cn3)ccc2F)COC1 (centres unmarked) [Example 86]
10,25,NC1=NC(CF)(c2cc(NC(=O)c3ccc(Cl)cn3)ccc2F)COC1 (centres unmarked) [Example 87]
11,12,NC1=NC(CF)(c2cc(NC(=O)c3ncc(Cl)cc3Cl)ccc2F)COC1 (centres unmarked) [Example 88]
12,152,N#Cc1ccc(C(=O)Nc2ccc(F)c(C3(CF)COCC(N)=N3)c2)nc1 (centres unmarked) [Example 89]
13,11,Cc1cc(Br)cnc1C(=O)Nc1ccc(F)c(C2(CF)COCC(N)=N2)c1 (centres unmarked) [Example 90]
14,6,Cc1cc(Br)cnc1C(=O)Nc1ccc(F)c([C@]2(CF)COCC(N)=N2)c1 [Example 91]
15,0.4,Cc1cc(Cl)cnc1C(=O)Nc1ccc(F)c([C@]2(CF)COCC(N)=N2)c1 [Example 92]
16,1.4,Cl.[2H]c1nc(C(=O)Nc2ccc(F)c([C@]3(CF)COCC(N)=N3)c2)c(C([2H])([2H])[2H])c([2H])c1Cl [Example 93]
17,33,NC1=N[C@](CF)(c2cc(NC(=O)c3ncc(Br)cc3O)ccc2F)COC1 [Example 94]
18,53,COc1cc(Br)cnc1C(=O)Nc1ccc(F)c([C@]2(CF)COCC(N)=N2)c1 [Example 95]
19,11,NC1=N[C@@](c2cc(NC(=O)c3ccc(Br)cn3)ccc2F)(C(F)F)CCOC1 [Example 97]
20,144,"N#Cc1ccc(C(=O)Nc2ccc(F)c(C3(C(F)(F)F)CCOCC(N)=N3)c2)nc1 (centres unmarked) [Example 98, 5-Cyano-pyridine-2-carboxylic acid [3-(3-amino-5-trifluoromethyl-2,5,6,7-tetrahydro-[1,4]oxazepin-5-yl)-4-fluoro-phenyl]-amide hydrochloride]"
21,37,NC1=NC(c2cc(NC(=O)c3ccc(Br)cn3)ccc2F)(C(F)(F)F)CCOC1 (centres unmarked) [Example 99]
